{
  "source": "patent US10112950B2",
  "about": "“Substituted imidazo[1,2-a]pyrazines as LSD1 inhibitors” (Incyte Corporation, priority 2014, dated 2018)",
  "data": [
    {"target": "LSD-1 enzyme (Homo sapiens (Human), UniProt O60341)", "assay": "LANCE LSD1/KDM1A demethylase assay (LSD1 histone demethylase biochemical assay)", "settings": "1 nM LSD-1 enzyme, 1 hour preincubation at 25° C., 0.4 μM Biotin-labeled Histone H3 peptide substrate", "experimental": "LSD1 Histone Demethylase Biochemical Assay\nLANCE LSD1/KDM1A demethylase assay-10 μL of 1 nM LSD-1 enzyme (ENZO BML-SE544-0050) in the assay buffer (50 mM Tris, pH 7.5, 0.01% Tween-20, 25 mM NaCl, 5 mM DTT) were preincubated for 1 hour at 25° C. with 0.8 μL compound/DMSO dotted in black 384 well polystyrene plates. […] Reactions were stopped by addition of 10 μL 1× LANCE Detection Buffer (PerkinElmer CR97-100) supplemented with 1.5 nM Eu-anti-unmodified H3K4 Antibody (PerkinElmer TRF0404), and 225 nM LANCE Ultra Streptavidin (PerkinElmer TRF102) along with 0.9 mM Tranylcypromine-HCl (Millipore 616431). After stopping the reactions plates were incubated for 30 minutes and read on a PHERAstar FS plate reader (BMG Labtech).", "units": {"IC50": "nM"}, "values": [
      {"smiles": "CN(C)C1CCN(c2nc(-c3ccc(C#N)cc3)c(-c3ccc4c(c3)CC(O)C4)n3ccnc23)CC1", "note": "(racemic) [Example 93, 4-[8-[4-(dimethylamino)piperidin-1-yl]-5-(2-hydroxy-2,3-dihydro-1H-inden-5-yl)imidazo[1,2-a]pyrazin-6-yl]benzonitrile]", "IC50": "≤ 50"},
      {"smiles": "CN(C)C1CCN(c2nc(-c3ccc(C#N)cc3)c(-c3ccc4c(c3)C(O)CC4)n3ccnc23)CC1", "note": "(racemic) [Example 95, 4-[8-[4-(dimethylamino)piperidin-1-yl]-5-(3-hydroxy-2,3-dihydro-1H-inden-5-yl)imidazo[1,2-a]pyrazin-6-yl]benzonitrile]", "IC50": "≤ 50"},
      {"smiles": "Cc1ccc(-c2c(-c3ccc(C#N)cc3)nc(OC[C@@H]3CCNC3)c3nccn23)cc1", "note": "[Example 1, 4-{5-(4-methylphenyl)-8-[(3R)-pyrrolidin-3-ylmethoxy]imidazo[1,2-a]pyrazin-6-yl}benzonitrile]", "IC50": "≤ 50"},
      {"smiles": "Cc1ccc(-c2c(-c3ccc(C#N)cc3)nc(CCC3CCNC3)c3nccn23)cc1", "note": "(stereo not shown) [Example 2, 4-[5-(4-methylphenyl)-8-(2-pyrrolidin-3-ylethyl)imidazo[1,2-a]pyrazin-6-yl]benzonitrile]", "IC50": "≤ 50"},
      {"smiles": "Cc1ccc(-c2c(-c3ccc(C#N)cc3)nc(CN3CC[C@H](N(C)C)C3)c3nccn23)cc1", "note": "[Example 4, 4-[8-{[(3S)-3-(dimethylamino)pyrrolidin-1-yl]methyl}-5-(4-methylphenyl)imidazo[1,2-a]pyrazin-6-yl]benzonitrile]", "IC50": "≤ 50"},
      {"smiles": "Cc1ccc(-c2c(-c3ccc(C#N)cc3)nc(CN3CC[C@@H](N(C)C)C3)c3nccn23)cc1", "note": "[Example 5, 4-[8-{[(3R)-3-(dimethylamino)pyrrolidin-1-yl]methyl}-5-(4-methylphenyl)imidazo[1,2-a]pyrazin-6-yl]benzonitrile]", "IC50": "≤ 50"},
      {"smiles": "Cc1ccc(-c2c(-c3ccc(C#N)cc3)nc(OC3CCN(C)C3)c3nccn23)cc1", "note": "(stereo not shown) [Example 7, 4-{5-(4-methylphenyl)-8-[(1-methylpyrrolidin-3-yl)oxy]imidazo[1,2-a]pyrazin-6-yl}benzonitrile]", "IC50": "≤ 50"},
      {"smiles": "Cc1ccc(-c2c(-c3ccc(C#N)cc3)nc(OC[C@@H]3CCCNC3)c3nccn23)cc1", "note": "[Example 9, 4-{5-(4-methylphenyl)-8-[(3R)-piperidin-3-ylmethoxy]imidazo[1,2-a]pyrazin-6-yl}benzonitrile]", "IC50": "≤ 50"},
      {"smiles": "Cc1ccc(-c2c(-c3ccc(C#N)cc3)nc(OC[C@H]3CCCNC3)c3nccn23)cc1", "note": "[Example 10, 4-{5-(4-methylphenyl)-8-[(3S)-piperidin-3-ylmethoxy]imidazol[1,2-a]pyrazin-6-yl}benzonitrile]", "IC50": "≤ 50"},
      {"smiles": "Cc1ccc(-c2c(-c3ccc(C#N)cc3)nc(OC[C@@H]3CCN(C)C3)c3nccn23)cc1", "note": "[Example 11, 4-(5-(4-methylphenyl)-8-{[(3R)-1-methylpyrrolidin-3-yl]methoxy}imidazo[1,2-a]pyrazin-6-yl)benzonitrile]", "IC50": "≤ 50"},
      {"smiles": "Cc1ccc(-c2c(-c3ccc(C#N)cc3)nc(OC[C@@H]3CCCN(C)C3)c3nccn23)cc1", "note": "[Example 12, 4-(5-(4-methylphenyl)-8-{[(3R)-1-methylpiperidin-3-yl]methoxy}imidazo[1,2-a]pyrazin-6-yl)benzonitrile]", "IC50": "≤ 50"},
      {"smiles": "Cc1ccc(-c2c(-c3ccc(C#N)cc3)nc(SC[C@@H]3CCNC3)c3nccn23)cc1", "note": "[Example 13, 4-(5-(4-methylphenyl)-8-{[(3R)-pyrrolidin-3-ylmethyl]thio}imidazo[1,2-a]pyrazin-6-yl)benzonitrile]", "IC50": "≤ 50"},
      {"smiles": "Cc1ccc(-c2c(-c3ccc(C#N)cc3)nc(N3CCC(N(C)C)CC3)c3nccn23)cc1", "note": "[Example 14, 4-[8-[4-(dimethylamino)piperidin-1-yl]-5-(4-methylphenyl)imidazo[1,2-a]pyrazin-6-yl]benzonitrile]", "IC50": "≤ 50"},
      {"smiles": "Cc1ccc(-c2c(-c3ccc(C#N)cc3)nc(N3CCCN(C)CC3)c3nccn23)cc1", "note": "[Example 18, 4-[8-(4-methyl-1,4-diazepan-1-yl)-5-(4-methylphenyl)imidazo[1,2-a]pyrazin-6-yl]benzonitrile]", "IC50": "≤ 50"},
      {"smiles": "Cc1ccc(-c2c(-c3ccc(C#N)cc3)nc(N3CCC4(CCNC4)C3)c3nccn23)cc1", "note": "(stereo not shown) [Example 19, 4-[8-(2,7-diazaspiro[4.4]non-2-yl)-5-(4-methylphenyl)imidazo[1,2-a]pyrazin-6-yl]benzonitrile]", "IC50": "≤ 50"},
      {"smiles": "Cc1ccc(-c2c(-c3ccc(C#N)cc3)nc(N3CCC4(CC3)CNC4)c3nccn23)cc1", "note": "[Example 20, 4-[8-(2,7-diazaspiro[3.5]non-7-yl)-5-(4-methylphenyl)imidazo[1,2-a]pyrazin-6-yl]benzonitrile]", "IC50": "≤ 50"},
      {"smiles": "N#Cc1ccc(-c2nc(OC[C@@H]3CCNC3)c3nccn3c2-c2ccc(N3CCCCC3)cc2)cc1", "note": "[Example 29, 4-{5-(4-piperidin-1-ylphenyl)-8-[(3R)-pyrrolidin-3-ylmethoxy]imidazo[1,2-a]pyrazin-6-yl}benzonitrile]", "IC50": "≤ 50"},
      {"smiles": "COc1ccc(-c2c(-c3ccc(C#N)cc3)nc(OC[C@@H]3CCNC3)c3nccn23)cc1", "note": "[Example 30, 4-{5-(4-methoxyphenyl)-8-[(3R)-pyrrolidin-3-ylmethoxy]imidazol[1,2-a]pyrazin-6-yl}benzonitrile]", "IC50": "≤ 50"},
      {"smiles": "Cc1ccc(-c2c(-c3ccc(C#N)cc3)nc(OC[C@@H]3CCNC3)c3nc(C)cn23)cc1", "note": "[Example 33, 4-{2-methyl-5-(4-methylphenyl)-8-[(3R)-pyrrolidin-3-ylmethoxy]imidazo[1,2-a]pyrazin-6-yl}benzonitrile]", "IC50": "≤ 50"},
      {"smiles": "Cc1ccc(-c2c(-c3ccc(C#N)cc3)nc(OC[C@@H]3CCNC3)c3nc(CC#N)cn23)cc1", "note": "[Example 36, 4-{2-(cyanomethyl)-5-(4-methylphenyl)-8-[(3R)-pyrrolidin-3-ylmethoxy]imidazol[1,2-a]pyrazin-6-yl}benzonitrile]", "IC50": "≤ 50"},
      {"smiles": "CNC(=O)c1cn2c(-c3ccc(C)cc3)c(-c3ccc(C#N)cc3)nc(OC[C@@H]3CCNC3)c2n1", "note": "[Example 37, 6-(4-cyanophenyl)-N-methyl-5-(4-methylphenyl)-8-[(3R)-pyrrolidin-3-ylmethoxy]imidazol-[1,2-a]pyrazine-2-carboxamide]", "IC50": "≤ 50"},
      {"smiles": "Cc1ccc(-c2c(-c3ccc(C#N)cc3)nc(OC[C@@H]3CCNC3)c3nc(C(=O)N(C)C)cn23)cc1", "note": "[Example 38, 6-(4-cyanophenyl)-N,N-dimethyl-5-(4-methylphenyl)-8-[(3R)-pyrrolidin-3-ylmethoxy]imidazo[1,2-a]pyrazine-2-carboxamide]", "IC50": "≤ 50"},
      {"smiles": "Cc1ccc(-c2c(-c3ccc(C#N)cc3)nc(OC[C@@H]3CCNC3)c3nc(C(=O)NC4CC4)cn23)cc1", "note": "[Example 39, 6-(4-cyanophenyl)-N-cyclopropyl-5-(4-methylphenyl)-8-[(3R)-pyrrolidin-3-ylmethoxy]imidazol[1,2-a]pyrazine-2-carboxamide]", "IC50": "≤ 50"},
      {"smiles": "Cc1ccc(-c2c(-c3ccc(C#N)cc3)nc(OC[C@@H]3CCNC3)c3nc(C(=O)NC4CN(C)C4)cn23)cc1", "note": "[Example 40, 6-(4-cyanophenyl)-N-(1-methylazetidin-3-yl)-5-(4-methylphenyl)-8-[(3R)-pyrrolidin-3-ylmethoxy]imidazol[1,2-a]pyrazine-2-carboxamide]", "IC50": "≤ 50"},
      {"smiles": "Cc1ccc(-c2c(-c3ccc(C#N)cc3)nc(OC[C@@H]3CCNC3)c3nc(CO)cn23)cc1", "note": "[Example 41, 4-{2-(hydroxymethyl)-5-(4-methylphenyl)-8-[(3R)-pyrrolidin-3-ylmethoxy]imidazol[1,2-a]pyrazin-6-yl}benzonitrile]", "IC50": "≤ 50"},
      {"smiles": "Cc1ccc(-c2c(-c3ccc(C#N)cc3)nc(OC[C@@H]3CCNC3)c3nc(CN(C)C)cn23)cc1", "note": "[Example 42, 4-{2-[(dimethylamino)methyl]-5-(4-methylphenyl)-8-[(3R)-pyrrolidin-3-ylmethoxy]imidazol[1,2-a]pyrazin-6-yl}benzonitrile]", "IC50": "≤ 50"},
      {"smiles": "Cc1ccc(-c2c(-c3ccc(C#N)cc3)nc(OC[C@@H]3CCNC3)c3nc(CN4CCC4)cn23)cc1", "note": "[Example 43, 4-{2-(azetidin-1-ylmethyl)-5-(4-methylphenyl)-8-[(3R)-pyrrolidin-3-ylmethoxy]imidazol[1,2-a]pyrazin-6-yl}benzonitrile]", "IC50": "≤ 50"},
      {"smiles": "Cc1ccc(-c2c(-c3ccc(C#N)cc3)nc(OC[C@@H]3CCNC3)c3nc(CNCC4CC4)cn23)cc1", "note": "[Example 44, 4-{2-{[(cyclopropylmethyl)amino]methyl}-5-(4-methylphenyl)-8-[(3R)-pyrrolidin-3-ylmethoxy]imidazo[1,2-a]pyrazin-6-yl}benzonitrile]", "IC50": "≤ 50"},
      {"smiles": "Cc1ccc(-c2c(-c3ccc(C#N)cc3)nc(OC[C@@H]3CCNC3)c3nc(CNc4ccon4)cn23)cc1", "note": "[Example 45, 4-{2-[(isoxazol-3-ylamino)methyl]-5-(4-methylphenyl)-8-[(3R)-pyrrolidin-3-ylmethoxy]imidazo[1,2-a]pyrazin-6-yl}benzonitrile]", "IC50": "≤ 50"},
      {"smiles": "Cc1ccc(-c2c(-c3ccc(C#N)cc3)nc(OC[C@@H]3CCN(C)C3)c3nc(CN(C)C)cn23)cc1", "note": "[Example 46, 4-(2-[(dimethylamino)methyl]-5-(4-methylphenyl)-8-{[(3R)-1-methylpyrrolidin-3-yl]methoxy}imidazo[1,2-a]pyrazin-6-yl)benzonitrile]", "IC50": "≤ 50"},
      {"smiles": "Cc1ccc(-c2c(-c3ccc(C#N)cc3)nc(OC[C@@H]3CCNC3)c3nc(CCN(C)C)cn23)cc1", "note": "[Example 47, 4-{2-[2-(dimethylamino)ethyl]-5-(4-methylphenyl)-8-[(3R)-pyrrolidin-3-ylmethoxy]imidazo[1,2-a]pyrazin-6-yl}benzonitrile]", "IC50": "≤ 50"}
    ]}
  ]
}
